Target: T1, KCC2 (Homo sapiens, UniProt Q9H2X9)
T1 construct: expressed in transfected cells; host or cells: HEK-293 (ATCC CRL-1573)
T1 sequence (Q9H2X9 1-1116 isoform Q9H2X9-2): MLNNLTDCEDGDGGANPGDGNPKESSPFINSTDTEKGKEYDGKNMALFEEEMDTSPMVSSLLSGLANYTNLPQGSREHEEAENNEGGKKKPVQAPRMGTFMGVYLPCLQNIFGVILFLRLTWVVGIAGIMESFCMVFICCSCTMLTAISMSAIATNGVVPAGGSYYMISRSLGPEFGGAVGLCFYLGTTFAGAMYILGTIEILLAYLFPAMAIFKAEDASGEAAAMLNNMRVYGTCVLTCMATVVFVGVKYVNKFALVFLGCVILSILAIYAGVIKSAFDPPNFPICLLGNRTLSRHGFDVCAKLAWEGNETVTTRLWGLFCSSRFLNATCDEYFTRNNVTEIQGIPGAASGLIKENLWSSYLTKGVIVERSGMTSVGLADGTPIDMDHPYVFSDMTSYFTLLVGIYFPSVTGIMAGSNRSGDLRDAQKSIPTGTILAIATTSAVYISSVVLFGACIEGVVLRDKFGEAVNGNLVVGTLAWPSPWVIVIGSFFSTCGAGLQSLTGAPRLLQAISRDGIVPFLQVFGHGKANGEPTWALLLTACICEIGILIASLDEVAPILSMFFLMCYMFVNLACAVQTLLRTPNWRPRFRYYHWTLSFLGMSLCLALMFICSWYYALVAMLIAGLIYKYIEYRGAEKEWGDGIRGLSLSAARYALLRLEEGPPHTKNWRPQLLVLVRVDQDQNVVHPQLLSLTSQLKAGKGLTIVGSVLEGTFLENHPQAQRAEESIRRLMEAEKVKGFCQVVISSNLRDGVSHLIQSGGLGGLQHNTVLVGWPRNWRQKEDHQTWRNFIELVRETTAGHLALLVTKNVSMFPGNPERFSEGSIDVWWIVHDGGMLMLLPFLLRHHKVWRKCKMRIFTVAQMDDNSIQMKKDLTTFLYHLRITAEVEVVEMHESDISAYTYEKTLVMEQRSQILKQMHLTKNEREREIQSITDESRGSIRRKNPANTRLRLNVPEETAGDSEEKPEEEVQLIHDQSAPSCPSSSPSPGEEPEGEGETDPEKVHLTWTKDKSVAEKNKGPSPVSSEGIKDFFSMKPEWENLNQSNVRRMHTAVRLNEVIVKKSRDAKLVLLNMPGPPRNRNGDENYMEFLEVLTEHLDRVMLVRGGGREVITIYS
Assay: Cell surface biotinylation of KCC2 in HEK-293 cells
Format: cell-based
Settings: 15 min
Description: Cell Culture and biotinylation. HEK-293 cells were purchased from ATCC (CRL-1573) and transfected with human KCC2 and GFP expression plasmids using Lipofectamine 2000. Cells were utilized for experimentation 48-72 h following transfection. Cells were biotinylated at 4° C. using NHS-Biotin. Following lysis and purification on immobilized avidin beads, cell surface and total fractions were subject to immunoblotting as outlined previously (Conway et al., 2017, supra).
The reliability of the biotinylation procedure was assessed via immunoblotting with antibodies against the cytosolic protein actin. Actin was present in the total lysates but was absent from the surface fractions (FIG. 2C).

Structure (SMILES): C[C@@H]1CN(c2nc3c(c(Nc4ccc(C5CCCCC5)cc4)n2)COC3)CCO1 [Compound A, (R)—N-(4-cyclohexylphenyl)-2-(2-methylmorpholino)-5,7-dihydrofuro[3,4-d]pyrimidin-4-amine]
- level of KCC2 on the plasma membrane (surface/total) (0.3 μM): 94.5±8.4 % of control
- level of KCC2 on the plasma membrane (surface/total) (3 μM): 104.7±8.4 % of control

Source: US20260191874A1, “FUSED AMINO PYRIMIDINE COMPOUNDS FOR TREATMENT OF AUTISM SPECTRUM DISORDER, OBSESSIVE COMPULSIVE DISORDER AND TICS” (Ovid Therapeutics Inc., priority 2024, published 2026)
